Where two headings read alike, the source gives them in different places. One block for each compound: values may come before it.
What was measured:
[1] = amide bond, 13-membered ring, HATU/DIEA, 25.0 °C
[2] = target: T1, CFTR-mediated chloride transport in human intestinal epithelial enteroid cells (Homo sapiens, UniProt P13569); assay: Membrane potential dye, Enteroid Assay B; assay type: cell-based
Method: (§1) Base medium (ADF+++) consisted of Advanced DMEM/Ham's F12, 2 mM Glutamax, 10 mM HEPES, […] penicillin/streptomycin.
(§2) Intestinal enteroid maintenance medium (IEMM) consisted of ADF+++, 1×B27 supplement, 1×N2 supplement, 1.25 mM N-acetyl cysteine, 10 mM Nicotinamide, 50 ng/mL hEGF, 10 nM Gastrin, 1 μg/mL hR-spondin-1, 100 ng/mL hNoggin, TGF-b type 1 inhibitor A-83-01, 100 μg/mL Primocin, 10 μM P38 MAPK inhibitor SB202190.
(§3) Bath 1 Buffer consisted of 1 mM MgCl2, 160 mM NaCl, 4.5 mM KCl, 10 mM HEPES, 10 mM Glucose, 2 mM CaCl2).
(§4) Chloride Free Buffer consisted of 1 mM Magnesium Gluconate, 2 mM Calcium Gluconate, 4.5 mM Potassium Gluconate, 160 mM Sodium Gluconate, 10 mM HEPES, 10 mM Glucose.
(§5) BathI Dye Solution consisted of Bath 1 Buffer, 0.04% Pluronic F127, 20 μM Methyl Oxonol, 30 μM CaCCinh-A01, 30 μM Chicago Sky Blue.
(§6) Chloride Free Dye Solution consisted of Chloride Free Buffer, 0.04% Pluronic F127, 20 μM Methyl Oxonol, 30 μM CaCCinh-A01, 30 μM Chicago Sky Blue.
(§7) Chloride Free Dye Stimulation Solution consisted of Chloride Free Dye Solution, 10 μM forskolin, 100 μM IBMX, and 300 nM Compound III.
(§8) Human intestinal epithelial enteroid cells were obtained from the Hubrecht Institute for Developmental Biology and Stem Cell Research, Utrecht, The Netherlands and expanded in T-Flasks as previously described (Dekkers J F, Wiegerinck C L, de Jonge H R, Bronsveld I, Janssens H M, de Winter-de Groot K M, Brandsma A M, de Jong N W M, Bijvelds M J C, Scholte B J, Nieuwenhuis E E S, van den Brink S, Clevers H, van der Ent C K, Middendorp S and M Beekman J M. A functional CFTR assay using primary cystic fibrosis intestinal organoids. Nat Med. 2013 July; 19(7):939-45.).
(§9) Cells were recovered in cell recovery solution, collected by centrifugation at 650 rpm for 5 minutes at 4° C., resuspended in TrypLE and incubated for 5 minutes at 37° C. Cells were then collected by centrifugation at 650 rpm for 5 minutes at 4° C. and resuspended in IEMM containing 10 μM ROCK inhibitor (RI). The cell suspension was passed through a 40 μm cell strainer and resuspended at 1×10^6 cells/mL in IEMM containing 10 μM RI. Cells were seeded at 5000 cells/well into multi-well plates and incubated for overnight at 37° C., 95% humidity and 5% CO2 prior to assay.
(§10) Enteroid cells were incubated with test compound in IEMM for 18-24 hours at 37° C., 95% humidity, and 5% C02. […] Briefly, cells were washed 5 times in Bath 1 Buffer. Bath 1 Dye Solution was added and the cells were incubated for 25 minutes at room temperature. Following dye incubation, cells were washed 3 times in Chloride Free Dye Solution. Chloride transport was initiated by addition of Chloride Free Dye Stimulation Solution and the fluorescence signal was read for 15 minutes. […] Chloride transport was then expressed as a percentage of the chloride transport following treatment with 1 μM (14S)-8-[3-(2-{Dispiro[2.0.2.1]heptan-7-yl}ethoxy)-1H-pyrazol-1-yl]-12,12-dimethyl-2λ^6-thia-3,9,11,18,23-pentaazatetracyclo[17.3.1.111,14.05,10]tetracosa-1(22),5,7,9,19(23),20-hexaene-2,2,4-trione, 3 μM (R)-1-(2,2-difluorobenzo[d][1,3]dioxol-5-yl)-N-(1-(2,3-dihydroxypropyl)-6-fluoro-2-(1-hydroxy-2-methylpropan-2-yl)-1H-indol-5-yl)cyclopropanecarboxamide and 300 nM acute N-[2,4-bis(1,1-dimethylethyl)-5-hydroxyphenyl]-1,4-dihydro-4-oxoquinoline-3-carboxamide triple combination control (% Activity).

[3] = target: T1, CFTR-mediated chloride transport in human intestinal epithelial enteroid cells; assay: Membrane potential dye, Enteroid Assay A; assay type: cell-based
Method: as §1, §2, §3, §4, §5, §6, §7, §8, §9
as §10, with “95% humidity” for “95% humidity,”, “was added,” for “was added”, “with 3” for “with 1”, “μM (S)—N-((6-aminopyridin-2-yl)sulfonyl)-6-(3-fluoro-5-isobutoxyphenyl)-2-(2,2,4-trimethylpyrrolidin-1-yl)nicotinamide,” for “μM (14S)-8-[3-(2-{Dispiro[2.0.2.1]heptan-7-yl}ethoxy)-1H-pyrazol-1-yl]-12,12-dimethyl-2λ^6-thia-3,9,11,18,23-pentaazatetracyclo[17.3.1.111,14.05,10]tetracosa-1(22),5,7,9,19(23),20-hexaene-2,2,4-trione,”

F508del in NIH 3T3 cells = target: T2, F508del in NIH 3T3 cells (Homo sapiens, UniProt P13569, DEL508-508); assay: 3T3 assay: membrane potential optical assay for F508del correction; assay type: cell-based, mouse; settings: F508del NIH 3T3 cells
T2 construct: expressed in transfected cells
Source text: The assay utilizes fluorescent voltage sensing dyes to measure changes in membrane potential using a fluorescent plate reader (e.g., FLIPR III, Molecular Devices, Inc.) as a readout for increase in functional F508del in NIH 3T3 cells. The driving force for the response is the creation of a chloride ion gradient in conjunction with channel activation by a single liquid addition step after the cells have previously been treated with compounds and subsequently loaded with a voltage sensing dye.
To identify correctors of F508del, a single-addition HTS assay format was developed. This HTS assay utilizes fluorescent voltage sensing dyes to measure changes in membrane potential on the FLIPR III as a measurement for increase in gating (conductance) of F508del in F508del NIH 3T3 cells. The F508del NIH 3T3 cell cultures were incubated with the corrector compounds at a range of concentrations for 18-24 hours at 37° C., and subsequently loaded with a redistribution dye. The driving force for the response is a Cl^− ion gradient in conjunction with channel activation with forskolin in a single liquid addition step using a fluorescent plate reader such as FLIPR III.
Bath Solution #1: (in mM) NaCl 160, KCl 4.5, CaCl2) 2, MgCl2 1, HEPES 10, pH 7.4 with NaOH.
Chloride-free bath solution: Chloride salts in Bath Solution #1 (above) are substituted with gluconate salts.
NIH3T3 mouse fibroblasts stably expressing F508del are used for optical measurements of membrane potential. The cells are maintained at 37° C. in 5% CO2 and 90% humidity in Dulbecco's modified Eagle's medium supplemented with 2 mM glutamine, 10% fetal bovine serum, 1×NEAA, b-ME, 1×pen/strep, and 25 mM HEPES in 175 cm^2 culture flasks. For all optical assays, the cells were seeded at ˜20,000/well in 384-well Matrigel-coated plates. For the correction assays, the cells are cultured at 37° C. with and without compounds for 16-24 hours.

[4] = target: T3, CFTR-mediated short-circuit current in F508del/MF-HBE cells (Homo sapiens, UniProt P13569, DEL508-508); assay: HBE2 assay: Ussing chamber assay of CFTR-mediated short-circuit currents; assay type: cell-based; settings: single fixed concentration 3 μM in combination with 44 nM (6R,12R)-17-amino-12-methyl-6,15-bis(trifluoromethyl)-13,19-dioxa-3,4,18-triazatricyclo[12.3.1.12,5]nonadeca-1(18),2,4,14,16-pentaen-6-ol, 20% human serum
T3 construct: endogenous in cells; host or cells: primary human bronchial epithelial cells from CF subjects (F508del/MF)
Method: Ussing chamber experiments were performed using human bronchial epithelial (HBE) cells derived from CF subjects heterozygous for F508del and a minimal function CFTR mutation (F508del/MF-HBE) and cultured as previously described (Neuberger T, Burton B, Clark H, Van Goor F Methods Mol Biol 2011:741:39-54). After four days the apical media was removed, and the cells were grown at an air liquid interface for >14 days prior to use.
To isolate the CFTR-mediated short-circuit (ISC) current, F508del/MF-HBE grown on Costar® Snapwell™ cell culture inserts were mounted in an Ussing chamber and the transepithelial ISC was measured under voltage-clamp recording conditions (Vhold=0 mV) at 37° C. The basolateral solution contained (in mM) 145 NaCl, 0.83K2HPO4, 3.3 KH2PO4, 1.2 MgCl2, 1.2 CaCl2), 10 Glucose, 10 HEPES (pH adjusted to 7.4 with NaOH) and the apical solution contained (in mM) 145 NaGluconate, 1.2 MgCl2, 1.2 CaCl2), 10 glucose, 10 HEPES (pH adjusted to 7.4 with NaOH) and 30 μM amiloride to block the epithelial sodium channel. […] The CFTR-mediated ISC (μA/cm^2) for each condition was determined from the peak forskolin response to the steady-state current following inhibition.
The activity of the CFTR corrector compounds on the CFTR-mediated ISC was determined in Ussing chamber studies as described above. […]

T1 sequence (P13569 with tags, fused parts or gaps DEL508-508): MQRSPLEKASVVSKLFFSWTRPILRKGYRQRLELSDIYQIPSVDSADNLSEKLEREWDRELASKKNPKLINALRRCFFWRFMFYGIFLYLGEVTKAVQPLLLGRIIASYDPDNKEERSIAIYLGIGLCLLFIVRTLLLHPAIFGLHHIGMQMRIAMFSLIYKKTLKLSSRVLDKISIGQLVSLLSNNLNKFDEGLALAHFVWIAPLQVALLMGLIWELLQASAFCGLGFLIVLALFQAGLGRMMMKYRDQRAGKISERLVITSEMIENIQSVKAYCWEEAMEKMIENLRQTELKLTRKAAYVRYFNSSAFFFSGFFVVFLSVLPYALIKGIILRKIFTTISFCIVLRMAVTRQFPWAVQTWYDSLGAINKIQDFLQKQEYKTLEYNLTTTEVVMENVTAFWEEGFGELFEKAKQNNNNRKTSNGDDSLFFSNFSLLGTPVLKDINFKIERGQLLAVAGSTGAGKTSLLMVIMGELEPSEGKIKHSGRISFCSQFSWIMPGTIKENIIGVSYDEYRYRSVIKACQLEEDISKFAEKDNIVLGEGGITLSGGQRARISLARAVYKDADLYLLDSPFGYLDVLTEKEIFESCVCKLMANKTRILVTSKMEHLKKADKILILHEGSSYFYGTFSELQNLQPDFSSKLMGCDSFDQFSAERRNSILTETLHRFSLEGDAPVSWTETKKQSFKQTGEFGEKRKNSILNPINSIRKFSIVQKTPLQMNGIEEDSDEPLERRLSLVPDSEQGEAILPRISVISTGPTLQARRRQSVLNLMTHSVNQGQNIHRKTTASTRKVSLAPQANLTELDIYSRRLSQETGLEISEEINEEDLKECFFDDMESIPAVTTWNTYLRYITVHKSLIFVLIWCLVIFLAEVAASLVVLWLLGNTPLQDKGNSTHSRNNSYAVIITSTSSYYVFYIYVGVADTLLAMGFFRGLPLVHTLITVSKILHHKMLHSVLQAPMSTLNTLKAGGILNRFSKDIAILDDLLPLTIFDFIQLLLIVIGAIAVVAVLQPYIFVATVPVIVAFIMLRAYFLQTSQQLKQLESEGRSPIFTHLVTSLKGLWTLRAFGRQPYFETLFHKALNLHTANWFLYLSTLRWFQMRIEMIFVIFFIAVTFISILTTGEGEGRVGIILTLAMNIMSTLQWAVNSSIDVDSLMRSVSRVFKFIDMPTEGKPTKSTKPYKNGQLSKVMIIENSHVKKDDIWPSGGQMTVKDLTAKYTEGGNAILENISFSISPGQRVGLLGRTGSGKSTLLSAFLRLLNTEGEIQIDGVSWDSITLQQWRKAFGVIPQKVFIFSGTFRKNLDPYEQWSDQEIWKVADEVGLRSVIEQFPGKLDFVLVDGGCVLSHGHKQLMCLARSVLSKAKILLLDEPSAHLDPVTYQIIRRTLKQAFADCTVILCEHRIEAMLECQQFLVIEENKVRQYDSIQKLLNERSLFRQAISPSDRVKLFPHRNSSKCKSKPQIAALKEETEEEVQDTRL
T3 sequence (P13569 with tags, fused parts or gaps DEL508-508): as above
T2 sequence (P13569 with tags, fused parts or gaps DEL508-508): as above

Ent. B Max Activity ([2]; % of chloride transport of triple combination control: 1 μM (14S)-8-[3-(2-{Dispiro[2.0.2.1]heptan-7-yl}ethoxy)-1H-pyrazol-1-yl]-12,12-dimethyl-...-2,2,4-trione, 3 μM tezacaftor, 300 nM acute ivacaftor): +++ (+++ is >60%)
EC50 ([2]; enteroid cells, 18-24 hours incubation, acute 10 μM forskolin and 300 nM ivacaftor, read-out: Ent. B EC50): < 1000 nM
SMILES: Cc1cccc(C)c1-c1cc2nc(n1)NS(=O)(=O)c1cccc(c1)C(=O)NCCC2c1ccc(C(C)(C)C)cc1 (stereo not drawn) [Compound 5, 9-(4-tert-Butylphenyl)-6-(2,6-dimethylphenyl)-2,2-dioxo-2 λ6-thia-3,5,12,19-tetrazatricyclo[12.3.1.14,8]nonadeca-1(18),4(19),5,7,14,16-hexaen-13-one]
ring closure, isolated yield ([1]; from Cc1cccc(C)c1-c1cc(C(CCN)c2ccc(C(C)(C)C)cc2)nc(NS(=O)(=O)c2cccc(C(=O)O)c2)n1, DMF, 11.6 mM, 21.0 h): 40%

EC50 ([3]; enteroid cells, 18-24 hours incubation, acute 10 μM forskolin and 300 nM ivacaftor, read-out: Ent. A EC50): 1000 to 3000 nM
EC50 (F508del in NIH 3T3 cells; compound incubation 18-24 hours at 37° C., forskolin activation): < 1000 nM
3T3 Max Activity (F508del in NIH 3T3 cells; efficacy compared to lumacaftor in combination with acutely added 300 nM Ivacaftor): +++ (+++ is >60%)
SMILES: Cc1cccc(C)c1-c1cc2nc(n1)NS(=O)(=O)c1cccc(c1)C(=O)O[C@H](c1ccc(C(C)(C)C)cn1)[C@@H](CC(C)C)N2C [Compound 35]
Ent. A Max Activity ([3]; % of chloride transport of triple combination control: 3 μM (S)-N-((6-aminopyridin-2-yl)sulfonyl)-6-(3-fluoro-5-isobutoxyphenyl)-2-(2,2,4-trimethylpyrrolidin-1-yl)nicotinamide, 3 μM tezacaftor, 300 nM acute ivacaftor): ++ (++ is 30-60%)

HBE2 Activity at 3 μM [4]: +++ (+++ is >60%)
SMILES: Cc1cccc(C)c1-c1cc2nc(n1)NS(=O)(=O)c1cccc(c1)C(=O)N(C1CC3(CC(NC(=O)OC(C)C)C3)C1)[C@H](CC(C)(C)C)CC2 (stereo partly drawn) [Compound 69]

HBE2 Activity at 3 μM [4]: +++ (+++ is >60%)
SMILES: Cc1cccc(C)c1-c1cc2nc(n1)NS(=O)(=O)c1cccc(c1)C(=O)N(Cc1cncc(N(C)C3CCC3)n1)[C@H](CC(C)(C)C)CC2 [Compound 72]

Further lines, the compound ahead of its results:

SMILES: COC(=O)CCCN1CCC(C)c2cc(-c3c(C)cccc3C)nc(n2)NS(=O)(=O)c2cccc(c2)C1=O (stereo not drawn)
ring closure, isolated yield ([1]; from COC(=O)CCCNCCC(C)c1cc(-c2c(C)cccc2C)nc(NS(=O)(=O)c2cccc(C(=O)O)c2)n1, NMP, 22.1 mM, 15.0 h): 90%

SMILES: Cc1cccc(C)c1-c1cc2nc(n1)NS(=O)(=O)c1cccc(c1)C(=O)N(C1CC3(CC(NC(=O)OC(C)(C)C)C3)C1)[C@H](CC(C)C)CC2 (stereo partly drawn)
ring closure, isolated yield ([1]; from Cc1cccc(C)c1-c1cc(CC[C@@H](CC(C)C)NC2CC3(CC(NC(=O)OC(C)(C)C)C3)C2)nc(NS(=O)(=O)c2cccc(C(=O)O)c2)n1, NMP, 27.3 mM, 2.0 h): 88%

SMILES: Cc1cccc(C)c1-c1cc2nc(n1)NS(=O)(=O)c1cccc(c1)C(=O)N(C1CC3(CCN(C(=O)OC(C)(C)C)CC3)C1)[C@H](CC(C)C)CC2
ring closure, isolated yield ([1]; from Cc1cccc(C)c1-c1cc(CC[C@@H](CC(C)C)NC2CC3(CCN(C(=O)OC(C)(C)C)CC3)C2)nc(NS(=O)(=O)c2cccc(C(=O)O)c2)n1, NMP, 97.4 mM, 2.0 h): 68%

Source: patent publication US12612416B2, “Modulators of cystic fibrosis transmembrane conductance regulator” (VERTEX PHARMACEUTICALS INCORPORATED, priority 2020, dated 2026)
